Positions count from the first letter of the chain named.
Key:
Assay type in all cases: cell-based
[1] = molecular target: T1, IRK1 L245W mutant channel (Mus musculus, UniProt P35561, L245W); experiment: whole-cell patch clamp, IRK1 L245W mutant channel; conditions: equimolar 50 mM alcohol series
T1 construct: expressed in transfected cells; host or cells: HEK293 / HEK293T
T1 sequence (P35561 1-428 L245W): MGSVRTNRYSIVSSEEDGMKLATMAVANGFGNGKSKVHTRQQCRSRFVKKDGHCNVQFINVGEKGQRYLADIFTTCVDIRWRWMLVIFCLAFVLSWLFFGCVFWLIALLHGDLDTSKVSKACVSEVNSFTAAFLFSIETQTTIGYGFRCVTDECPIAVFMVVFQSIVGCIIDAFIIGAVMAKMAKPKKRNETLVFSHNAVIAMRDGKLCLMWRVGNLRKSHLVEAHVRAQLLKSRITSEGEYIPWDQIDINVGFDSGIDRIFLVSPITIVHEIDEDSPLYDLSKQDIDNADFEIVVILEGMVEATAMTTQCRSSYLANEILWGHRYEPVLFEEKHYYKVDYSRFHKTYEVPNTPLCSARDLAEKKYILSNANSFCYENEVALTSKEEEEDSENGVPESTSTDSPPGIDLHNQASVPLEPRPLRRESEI
Protocol: (§1) Point mutations were introduced by Quickchange site directed mutagenesis kit (Stratagene). The GIRK2 PIP mutant was generated by overlap-PCR method. […] Mutations were confirmed by automated DNA sequencing methods. […] Cells were plated in a 12 well dish, and were transiently transfected using Lipofectamine 2000 (Invitrogen). After 12-24 hrs, cells were re-plated to 12-mm glass coverslips coated with poly-D-[…] microgram/ml). […] The cells were co-transfected with 0.04 micrograms of eYFP cDNA to identify transfected cells. 0.8 micrograms of Muscarinic Receptor 2 (M2R) was also co-transfected for experiments with Carbachol. […] Whole-cell patch clamp recordings were performed 24-72 hrs after transfection. […] Alcohols, 5 μM Carbachol, and 1 mM BaCl2 (diluted in 20K solution) were applied from outside the cell with the rapid perfusion system (Warner Instruments). […] Current-voltage relationships also were obtained from the ramp protocol. This protocol was used to measure the inwardly rectifying currents at -100 mV and to ensure stability of recording by monitoring a reversal potential and inward rectification. […] Alcohol and Carbachol modulated currents were measured by averaging two consecutive current readings upon reaching steady state, and subtracting the averaged basal current before and after the application of modulator.

[2] = molecular target: T2, GIRK2 PIP L257W mutant (Mus musculus, UniProt P48542, D228N/I234L/L257W/M344L/N231K); experiment: whole-cell patch clamp, GIRK2 PIP L257W mutant channel; conditions: for inhibition of GIRK2 PIP L257W mutant channel, percentage inhibition: equimolar alcohol series (50 mM); for IC50: dose response, read-out: IC50 for inhibition of GIRK2 PIP L257W mutant
T2 construct: expressed in transfected cells; host or cells: HEK293 / HEK293T
T2 sequence (P48542 1-425 D228N/N231K/I234L/L257W/M344L): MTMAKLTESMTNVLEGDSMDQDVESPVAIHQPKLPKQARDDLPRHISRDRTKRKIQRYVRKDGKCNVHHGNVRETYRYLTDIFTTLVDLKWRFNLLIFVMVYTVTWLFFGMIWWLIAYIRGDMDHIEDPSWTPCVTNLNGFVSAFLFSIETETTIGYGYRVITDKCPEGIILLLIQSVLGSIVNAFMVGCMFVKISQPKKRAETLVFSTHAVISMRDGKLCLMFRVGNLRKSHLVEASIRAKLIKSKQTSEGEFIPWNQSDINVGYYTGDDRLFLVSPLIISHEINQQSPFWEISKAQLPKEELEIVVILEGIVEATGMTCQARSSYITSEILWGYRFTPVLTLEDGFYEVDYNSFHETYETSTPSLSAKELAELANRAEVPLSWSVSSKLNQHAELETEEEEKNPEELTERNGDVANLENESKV
Protocol: as §1

[3] = molecular target: T3, GIRK2 PIP S148T mutant channel (Mus musculus, UniProt P48542, D228N/I234L/M344L/N231K/S148T); experiment: whole-cell patch clamp, GIRK2 PIP S148T mutant channel; conditions: 50 mM alcohols
T3 construct: expressed in transfected cells; host or cells: HEK293 / HEK293T
T3 sequence (P48542 1-425 S148T/D228N/N231K/I234L/M344L): T2 sequence (P48542 1-425 D228N/N231K/I234L/L257W/M344L) with S148T, W257L
Protocol: as §1

[4] = molecular target: T4, GIRK4* L252W mutant channel (Rattus norvegicus, UniProt P48548, L252W/S143T); experiment: whole-cell patch clamp, GIRK4* L252W mutant channel; conditions: for modulation of GIRK4* L252W mutant channel, percentage change from basal (negative = inhibition): n=8
T4 construct: expressed in transfected cells; host or cells: HEK293 / HEK293T
T4 sequence (P48548 1-419 S143T/L252W): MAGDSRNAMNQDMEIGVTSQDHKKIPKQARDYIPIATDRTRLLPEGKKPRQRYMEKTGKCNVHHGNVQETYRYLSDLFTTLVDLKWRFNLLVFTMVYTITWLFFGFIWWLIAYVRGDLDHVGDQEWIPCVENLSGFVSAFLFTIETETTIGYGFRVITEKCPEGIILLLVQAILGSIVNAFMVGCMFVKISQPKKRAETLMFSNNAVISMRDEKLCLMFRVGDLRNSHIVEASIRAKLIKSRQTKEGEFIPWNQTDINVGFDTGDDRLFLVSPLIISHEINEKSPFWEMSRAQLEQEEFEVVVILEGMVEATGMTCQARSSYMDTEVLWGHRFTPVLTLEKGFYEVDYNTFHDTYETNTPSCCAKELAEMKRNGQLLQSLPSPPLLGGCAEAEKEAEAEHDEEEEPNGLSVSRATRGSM
Protocol: as §1

[5] = molecular target: T5, GIRK4* Leu252 to Ala mutant channel (Rattus norvegicus, UniProt P48548, L252A/S143T); experiment: whole-cell patch clamp, GIRK4* L252A mutant channel; conditions: for percent activation of GIRK4* Leu252 to Ala mutant: n=8
T5 construct: expressed in transfected cells; host or cells: HEK293 / HEK293T
T5 sequence (P48548 1-419 S143T/L252A): T4 sequence (P48548 1-419 S143T/L252W) with W252A
Protocol: as §1

inhibition of IRK1 L245W mutant channel, percentage inhibition [1]	inhibition of GIRK2 PIP L257W mutant channel, percentage inhibition [2]	inhibition of GIRK2 PIP S148T, percentage inhibition [3]	modulation of GIRK4* L252W mutant channel, percentage change from basal (negative = inhibition) [4]	percent activation of GIRK4* Leu252 to Ala mutant [5]	IC50 [2]	Carb (G-protein mediated) activation, GIRK4* L252 Ala ([5]; 5 μM Carbachol)	Carb (G-protein mediated) activation, GIRK4* L252 Trp ([4]; 5 μM Carbachol)	Molecule
−3±1%	−20±2%	−4±1%	5±2%	–	–	–	–	CCO [EtOH, ethanol]
−8±1%	−92±1%	−15±1%	−19±2%	86±8%	~5.1 mM	–	–	1-propanol [1-PrOH]
−20±2%	−99±3%	−28±1%	–	–	–	–	–	1-butanol [1-BuOH]
−27±2%	−84±3%	−36±1%	–	179±22%	~7.7 mM	–	–	CC(O)CC(C)(C)O (racemic) [MPD, 2-methyl-2,4-pentanediol]
–	–	–	–	–	–	51±8%	23±3%	C[N+](C)(C)CCOC(N)=O [Carbachol]

Reference: patent US8097422B2, “Kir channel modulators” (Salk Institute for Biological Studies, priority 2007, dated 2012)
